Results reported in publication PMC4065032, “Biochemical Characterization of Quinolinic Acid Phosphoribosyltransferase from Mycobacterium tuberculosis H37Rv and Inhibition of Its Activity by Pyrazinamide” (PLoS ONE, 2014).
Values joined by “and” are separate entries in the source; they are usually repeats but may differ in a detail not shown here. Equal values may be shown once. Read-outs that look alike come from different tables or passages of the source.

Assays:
MtQAPRTase [1] = target: T1, MtQAPRTase (Mycobacterium tuberculosis, UniProt P9WJJ7)
T1 sequence (P9WJJ7 1-285): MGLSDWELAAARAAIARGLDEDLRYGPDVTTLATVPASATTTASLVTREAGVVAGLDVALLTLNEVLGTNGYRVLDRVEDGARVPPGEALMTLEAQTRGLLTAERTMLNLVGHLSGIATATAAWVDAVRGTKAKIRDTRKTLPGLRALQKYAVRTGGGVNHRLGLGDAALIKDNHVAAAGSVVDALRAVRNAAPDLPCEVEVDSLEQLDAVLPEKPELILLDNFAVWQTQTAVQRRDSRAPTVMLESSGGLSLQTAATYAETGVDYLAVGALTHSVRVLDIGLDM

MtQAPRTase [2] = target: T1, MtQAPRTase; assay: PZA or POA added instead of QA or PRPP as substrate (HPLC); type: biochemical, Mycobacterium tuberculosis H37Rv; set-up: Full-length nadC from M. tuberculosis H37Rv was inserted into the expression vector pET-30a; made in house; host or cells: E. coli BL21 (DE3), pET-30a
MtQAPRTase [3] = target: T1, MtQAPRTase; assay: Inhibition of MtQAPRTase activity by PZA/POA (HPLC quantification of NAMN); type: biochemical, Mycobacterium tuberculosis H37Rv; set-up: Full-length nadC from M. tuberculosis H37Rv was inserted into the expression vector pET-30a; made in house; host or cells: E. coli BL21 (DE3), pET-30a; conditions: for Ki: read-out: Ki estimated from IC50 by web-based tool
WT MtQAPRTase = target: T2, WT MtQAPRTase (Mycobacterium tuberculosis, UniProt P9WJJ7); assay: Kinetic parameters of MtQAPRTase (spectrophotometric assay at 266 nm); type: biochemical, Mycobacterium tuberculosis H37Rv
T2 sequence (P9WJJ7 1-285): T1 sequence (P9WJJ7 1-285)

Row | SMILES | Relative Activity (MtQAPRTase [1]) [%] | Specific activity (MtQAPRTase [1]) [Unit/mg] | further results
1 | [Ca+2].[Cl-].[Cl-] [Ca^2+ (CaCl2), CaCl2] | 0 | 0 | –
2 | [Cl-].[Cl-].[Co+2] [Co^2+ (CoCl2), CoCl2] | 12 | 0.15 | –
3 | O=S(=O)([O-])[O-].[Cu+2] [Cu^2+ (CuSO4), CuSO4] | 0 | 0 | –
4 | [Cl][Fe][Cl] [Fe^2+ (FeCl2), FeCl2] | 6 | 0.06 | –
5 | [Cl-].[Cl-].[Mg+2] [Mg^2+ (MgCl2), MgCl2] | 100 | 1.32 | –
6 | [Cl][Mn][Cl] [Mn^2+ (MnCl2), MnCl2] | 27 | 0.35 | –
7 | O=C(O)c1cnccn1 [POA, Pyrazinoic acid] | – | – | Use as substrate by MtQAPRTase (MtQAPRTase [2]): not substrates; IC50 (MtQAPRTase [3]): 3450 µM and > 20000 µM; Ki (MtQAPRTase [3]; pH 7.2): 175 µM
8 | O=P(O)(O)OC[C@H]1O[C@H](OP(=O)(O)OP(=O)(O)O)[C@H](O)[C@@H]1O [PRPP, 5-phosphoribosyl-1-pyrophosphate] | – | – | kcat (WT MtQAPRTase; varied substrate, other substrate fixed (QA 0.3 mM or PRPP 1.0 mM), pH 7.2, 37°C): 0.14 s⁻¹; Km (WT MtQAPRTase; varied substrate, other substrate fixed (QA 0.3 mM or PRPP 1.0 mM), pH 7.2, 37°C, read-out: Km): 390 µM
9 | NC(=O)c1cnccn1 [PZA, Pyrazinamide] | – | – | Use as substrate by MtQAPRTase (MtQAPRTase [2]): not substrates; IC50 (MtQAPRTase [3]): 380 µM and 1370 µM; Ki (MtQAPRTase [3]; pH 6.2): 69.4 µM; Ki (MtQAPRTase [3]; pH 7.2): 19.2 µM
10 | O=C(O)c1cccnc1C(=O)O [QA, 2,3-pyridinedicarboxylic acid] | – | – | Km (WT MtQAPRTase; pH 7.2): 80 µM; kcat (WT MtQAPRTase; pH 7.2): 0.12 s^-1 and 0.12
11 | [Cl-].[Cl-].[Zn+2] [Zn^2+ (ZnCl2), ZnCl2] | 0 | 0 | –
